Laboratory results reported in ChEMBL document CHEMBL1125295, “Synthesis and some pharmacological properties of potent and selective antagonists of the vasopressor (V1-receptor) response to arginine-vasopressin” (J Med Chem, 1992).
*1 amine or outer side, *2 acyl side, *3 side chain or, on linkers, in order; H or OH if unused. Where a SMILES comes first, the peptide text is derived from it. Bridges are numbered along the chain shown (N, C = ends). The star is where a group is joined. Ethylenediamine = C(CN[*:2])N[*:1]; X1 = O=C(CC1(S[*:2])CCCCC1)[*:1]; X2 = CC(C)(CC(=O)[*:1])S[*:2]; NHBu = CCCCN*

Experiments:
Vasopressin V1 receptor = Vasopressin V1 receptor (Rattus norvegicus, UniProt P48974+P30560); test: In vivo vasopressin V1-antagonistic activity was determined by measuring the blood pressure response in rats.; type: functional, organism-based
[1] = Ratio of antidiuretic V2 effective dose to that of vasopressin V1 effective dose; type: functional, Urine
Vasopressin V2 receptor = Vasopressin V2 receptor (Rattus norvegicus, UniProt Q00788); test: In vivo antidiuretic V2-antagonistic activity was measured as changes in urine flow in water-loaded rats and is expressed as the negative logarithm of the ''effective dose divided by the estimated volume of distribution (67 mL/kg); type: functional, organism-based; conditions: read-out: pA2 (converted)
Sequence of Vasopressin V2 receptor (Q00788 whole entry): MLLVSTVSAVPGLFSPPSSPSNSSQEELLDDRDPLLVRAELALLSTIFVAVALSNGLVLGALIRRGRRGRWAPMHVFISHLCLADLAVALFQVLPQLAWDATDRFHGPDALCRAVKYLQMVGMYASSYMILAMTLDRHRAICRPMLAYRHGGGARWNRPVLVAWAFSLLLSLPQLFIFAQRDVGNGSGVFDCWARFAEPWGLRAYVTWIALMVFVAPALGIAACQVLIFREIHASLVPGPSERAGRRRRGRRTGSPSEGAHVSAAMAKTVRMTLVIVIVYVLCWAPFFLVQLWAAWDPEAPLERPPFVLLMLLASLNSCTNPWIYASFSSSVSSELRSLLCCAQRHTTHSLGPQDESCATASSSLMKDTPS

SMILES | pA2 (Vasopressin V1 receptor) | Ratio [1] | Kb (Vasopressin V2 receptor)
CCCCNC(=O)CNC(=O)[C@H](CCCN=C(N)N)NC(=O)[C@@H]1CCCN1C(=O)[C@@H]1CSSC2(CCCCC2)CC(=O)N[C@@H](Cc2ccc(OC)cc2)C(=O)N[C@@H](Cc2ccccc2)C(=O)N[C@@H](CCC(N)=O)C(=O)N[C@@H](CC(N)=O)C(=O)N1 (Y(Me)FQNCPRG-NHBu; linker N-5 via X1) | 8.44 | – | –
COc1ccc(C[C@@H]2NC(=O)CC3(CCCCC3)SSC[C@@H](C(=O)N3CCC[C@H]3C(=O)N[C@@H](CCCN=C(N)N)C(=O)N[C@@H](C)C(N)=O)NC(=O)[C@H](CC(N)=O)NC(=O)[C@H](CCC(N)=O)NC(=O)[C@H](Cc3ccccc3)NC2=O)cc1 (Y(Me)FQNCPRA-NH2; linker N-5 via X1) [listing 1 of 2 here] | – | ~590 | –
COc1ccc(C[C@@H]2NC(=O)CC3(CCCCC3)SSC[C@@H](C(=O)N3CCC[C@H]3C(=O)N[C@@H](CCCN=C(N)N)C(=O)NCCN)NC(=O)[C@H](CC(N)=O)NC(=O)[C@H](CCC(N)=O)NC(=O)[C@H](Cc3ccccc3)NC2=O)cc1 (Y(Me)FQNCPR-Ethylenediamine; linker N-5 via X1) [listing 1 of 2 here] | 8.75 | – | ~501 nM
COc1ccc(C[C@@H]2NC(=O)CC3(CCCCC3)SSC[C@@H](C(=O)N3CCC[C@H]3C(=O)N[C@@H](CCCN=C(N)N)C(=O)N[C@@H](Cc3ccc(O)cc3)C(N)=O)NC(=O)[C@H](CC(N)=O)NC(=O)[C@H](CCC(N)=O)NC(=O)[C@H](Cc3ccccc3)NC2=O)cc1 (Y(Me)FQNCPRY-NH2; linker N-5 via X1) [listing 1 of 2 here] | 8.47 | – | ~1000 nM
COc1ccc(C[C@@H]2NC(=O)CC(C)(C)SSC[C@@H](C(=O)N3CCC[C@H]3C(=O)N[C@@H](CCCN=C(N)N)C(=O)N[C@H](C(N)=O)[C@@H](C)O)NC(=O)[C@H](CC(N)=O)NC(=O)[C@H](CCC(N)=O)NC(=O)[C@H](Cc3ccccc3)NC2=O)cc1 (Y(Me)FQNCPRT-NH2; linker N-5 via X2) | 8.04 | – | –
COc1ccc(C[C@@H]2NC(=O)CC3(CCCCC3)SSC[C@@H](C(=O)N3CCC[C@H]3C(=O)N[C@@H](CCCN=C(N)N)C(=O)N[C@@H](Cc3ccc(O)cc3)C(N)=O)NC(=O)[C@H](CC(N)=O)NC(=O)[C@H](CCC(N)=O)NC(=O)[C@H](Cc3ccccc3)NC2=O)cc1 (Y(Me)FQNCPRY-NH2; linker N-5 via X1) [listing 2 of 2 here] | – | ~217 | –
COc1ccc(C[C@@H]2NC(=O)CC3(CCCCC3)SSC[C@@H](C(=O)N3CCC[C@H]3C(=O)N[C@@H](CCCN=C(N)N)C(=O)NCCN)NC(=O)[C@H](CC(N)=O)NC(=O)[C@H](CCC(N)=O)NC(=O)[C@H](Cc3ccccc3)NC2=O)cc1 (Y(Me)FQNCPR-Ethylenediamine; linker N-5 via X1) [listing 2 of 2 here] | – | ~275 | –
COc1ccc(C[C@@H]2NC(=O)CC(C)(C)SSC[C@@H](C(=O)N3CCC[C@H]3C(=O)N[C@@H](CCCN=C(N)N)C(=O)NCC(N)=O)NC(=O)[C@H](CC(N)=O)NC(=O)[C@H](CCC(N)=O)NC(=O)[C@H](Cc3ccccc3)NC2=O)cc1 [DP[TYR(ME)2]AVP] (Y(Me)FQNCPRG-NH2; linker N-5 via X2) | 7.96 | – | –
COc1ccc(C[C@@H]2NC(=O)CC3(CCCCC3)SSC[C@@H](C(=O)N3CCC[C@H]3C(=O)N[C@@H](CCCN=C(N)N)C(=O)N[C@H](C(N)=O)[C@@H](C)O)NC(=O)[C@H](CC(N)=O)NC(=O)[C@H](CCC(N)=O)NC(=O)[C@H](Cc3ccccc3)NC2=O)cc1 (Y(Me)FQNCPRT-NH2; linker N-5 via X1) | 8.49 | – | ~631 nM
COc1ccc(C[C@@H]2NC(=O)CC(C)(C)SSC[C@@H](C(=O)N3CCC[C@H]3C(=O)N[C@@H](CCCN=C(N)N)C(=O)N[C@@H](Cc3ccc(O)cc3)C(N)=O)NC(=O)[C@H](CC(N)=O)NC(=O)[C@H](CCC(N)=O)NC(=O)[C@H](Cc3ccccc3)NC2=O)cc1 (Y(Me)FQNCPRY-NH2; linker N-5 via X2) | 8.25 | – | –
COc1ccc(C[C@@H]2NC(=O)CC(C)(C)SSC[C@@H](C(=O)N3CCC[C@H]3C(=O)N[C@@H](CCCN=C(N)N)C(=O)N[C@H](C(N)=O)C(C)C)NC(=O)[C@H](CC(N)=O)NC(=O)[C@H](CCC(N)=O)NC(=O)[C@H](Cc3ccccc3)NC2=O)cc1 (Y(Me)FQNCPRV-NH2; linker N-5 via X2) | 8.05 | – | –
COc1ccc(C[C@@H]2NC(=O)CC(C)(C)SSC[C@@H](C(=O)N3CCC[C@H]3C(=O)N[C@@H](CCCN=C(N)N)C(=O)N[C@@H](C)C(N)=O)NC(=O)[C@H](CC(N)=O)NC(=O)[C@H](CCC(N)=O)NC(=O)[C@H](Cc3ccccc3)NC2=O)cc1 (Y(Me)FQNCPRA-NH2; linker N-5 via X2) | 8.16 | – | –
COc1ccc(C[C@@H]2NC(=O)CC3(CCCCC3)SSC[C@@H](C(=O)N3CCC[C@H]3C(=O)N[C@@H](CCCN=C(N)N)C(=O)N[C@@H](C)C(N)=O)NC(=O)[C@H](CC(N)=O)NC(=O)[C@H](CCC(N)=O)NC(=O)[C@H](Cc3ccccc3)NC2=O)cc1 (Y(Me)FQNCPRA-NH2; linker N-5 via X1) [listing 2 of 2 here] | 8.75 | – | ~1000 nM
COc1ccc(C[C@@H]2NC(=O)CC(C)(C)SSC[C@@H](C(=O)N3CCC[C@H]3C(=O)N[C@@H](CCCN=C(N)N)C(=O)N[C@@H](CCCN=C(N)N)C(N)=O)NC(=O)[C@H](CC(N)=O)NC(=O)[C@H](CCC(N)=O)NC(=O)[C@H](Cc3ccccc3)NC2=O)cc1 (Y(Me)FQNCPRR-NH2; linker N-5 via X2) | 8.52 | – | –
CNC(=O)[C@H](CCCN=C(N)N)NC(=O)[C@@H]1CCCN1C(=O)[C@@H]1CSSC2(CCCCC2)CC(=O)N[C@@H](Cc2ccc(OC)cc2)C(=O)N[C@@H](Cc2ccccc2)C(=O)N[C@@H](CCC(N)=O)C(=O)N[C@@H](CC(N)=O)C(=O)N1 (Y(Me)FQNCPR-NHMe; linker N-5 via X1) [listing 1 of 2 here] | – | ~700 | –
COc1ccc(C[C@@H]2NC(=O)CC3(CCCCC3)SSC[C@@H](C(=O)N3CCC[C@H]3C(=O)N[C@@H](CCCN=C(N)N)C(=O)NCC(N)=O)NC(=O)[C@H](CC(N)=O)NC(=O)[C@H](CCC(N)=O)NC(=O)[C@H](Cc3ccccc3)NC2=O)cc1 (Y(Me)FQNCPRG-NH2; linker N-5 via X1) | 8.62 | – | –
COc1ccc(C[C@@H]2NC(=O)CC3(CCCCC3)SSC[C@@H](C(=O)N3CCC[C@H]3C(=O)N[C@@H](CCCN=C(N)N)C(=O)N[C@H](C(N)=O)C(C)C)NC(=O)[C@H](CC(N)=O)NC(=O)[C@H](CCC(N)=O)NC(=O)[C@H](Cc3ccccc3)NC2=O)cc1 (Y(Me)FQNCPRV-NH2; linker N-5 via X1) | 8.57 | – | ~1580 nM
CNC(=O)[C@H](CCCN=C(N)N)NC(=O)[C@@H]1CCCN1C(=O)[C@@H]1CSSC2(CCCCC2)CC(=O)N[C@@H](Cc2ccc(OC)cc2)C(=O)N[C@@H](Cc2ccccc2)C(=O)N[C@@H](CCC(N)=O)C(=O)N[C@@H](CC(N)=O)C(=O)N1 (Y(Me)FQNCPR-NHMe; linker N-5 via X1) [listing 2 of 2 here] | 8.73 | – | ~1260 nM
COc1ccc(C[C@@H]2NC(=O)CC3(CCCCC3)SSC[C@@H](C(=O)N3CCC[C@H]3C(=O)N[C@@H](CCCN=C(N)N)C(=O)NCC(=O)NCCN)NC(=O)[C@H](CC(N)=O)NC(=O)[C@H](CCC(N)=O)NC(=O)[C@H](Cc3ccccc3)NC2=O)cc1 (Y(Me)FQNCPRG-Ethylenediamine; linker N-5 via X1) | 8.39 | – | ~251 nM
COc1ccc(C[C@@H]2NC(=O)CC3(CCCCC3)SSC[C@@H](C(=O)N3CCC[C@H]3C(=O)N[C@@H](CCCN=C(N)N)C(=O)N[C@@H](CCCN=C(N)N)C(N)=O)NC(=O)[C@H](CC(N)=O)NC(=O)[C@H](CCC(N)=O)NC(=O)[C@H](Cc3ccccc3)NC2=O)cc1 (Y(Me)FQNCPRR-NH2; linker N-5 via X1) | 8.78 | – | ~219 nM
